According to patent US20250099420A1, “SMALL MOLECULE MODULATORS OF GPR139 COMPLEX” (University of Florida Research Foundation, Incorporated, priority 2022, published 2025):
Like-named read-outs stand apart in the source and are kept apart here.

Assays:
[1] = tested on: parental HEK cells; test: HEK parental Agonist Counterscreen Assay (non-transfected cells); assay type: cell-based; details: for Averaged Max % Response (±St. Dev.): activity relative to known control
Source text: The high control for the agonist counterscreen was Forskolin not acetylcholine.

[2] = target: T1, GPR139 (Homo sapiens, UniProt Q6DWJ6); test: GPR139 Agonist titration / agonist counterscreen assay (calcium detection, HEK-GPR139 cells); assay type: cell-based; design: expressed in transfected cells; host or cells: HEK Aequorin cells, Maxcyte transient transfection; details: GPR139 Agonist Activity; for Averaged Max % Response (±St. Dev.): activity relative to known control; for EC50: read-out: EC50
T1 sequence (Q6DWJ6 1-353): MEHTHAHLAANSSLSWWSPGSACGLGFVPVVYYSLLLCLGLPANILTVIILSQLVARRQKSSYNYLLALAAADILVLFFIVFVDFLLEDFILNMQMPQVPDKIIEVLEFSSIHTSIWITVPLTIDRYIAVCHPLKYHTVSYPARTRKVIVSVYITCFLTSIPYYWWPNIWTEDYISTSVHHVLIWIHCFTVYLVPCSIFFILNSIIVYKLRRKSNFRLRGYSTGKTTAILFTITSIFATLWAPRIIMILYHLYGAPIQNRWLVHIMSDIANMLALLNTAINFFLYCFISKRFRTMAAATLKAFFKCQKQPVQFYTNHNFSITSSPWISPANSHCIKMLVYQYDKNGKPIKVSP
Experimental: GPR activity was assessed using a calcium detection assay. […] Negative control samples were treated with DMSO. […] Intracellular calcium was measured using Calcium 5.

[3] = Homo sapiens, HEK293, HEK Agonist Activity, parental non-transfected HEK cells
[4] = values printed in E-notation without unit
[5] = Homo sapiens, HEK293, HEK Agonist Activity section of Table 4 (parental HEK counterscreen)
[6] = HEK Agonist Activity, parental non-transfected HEK cells

Structure (SMILES) | Lipophilic Efficiency (logD) ([1]; HEK Agonist Activity) | Lipophilic Efficiency (logP) ([1]; HEK Agonist Activity) | Averaged Max % Response (±St. Dev.) ([1]; HEK Agonist Activity) | EC50 [1, 3] | Averaged Max % Response (±St. Dev.) [2] | Lipophilic Efficiency (logD) ([2]; based on logD) | Lipophilic Efficiency (logP) ([2]; based on logP) | Hill Slope ([2]; fitted dose-response curve) | Efficiency Ligand ([2]; ligand efficiency) | EC50 [2, 4] | Lipophilic Efficiency (logD) ([1]; HEK Agonist Activity section) | Lipophilic Efficiency (logP) ([1]; HEK Agonist Activity section) | Averaged Max % Response (±St. Dev.) ([1]; HEK Agonist Activity section) | EC50 [1, 5] | other results
CC1(c2ccc3ccccc3c2)NC(=O)N(CC(=O)Nc2ccccc2Cl)C1=O (stereo not drawn) [SR-01000066950] | 1.21 | 1.21 | 2.95 ± 8.11% | > 13800 nM | 117.24 ± 4.32% | 3.74 | 3.74 | 0.61 | 0.36 | 40.5 nM | – | – | – | – | –
O=C(CCCOc1ccc(Cl)cc1Cl)NNC(=O)Cc1ccccc1 [SR-01000067982] | – | – | – | – | 88.62 ± 11.28% | 3.55 | 3.54 | 0.94 | 0.39 | 98.6 nM | 1.37 | 1.37 | 10.05 ± 3.22% | > 14800 nM | –
CN(Cc1ccc[nH]1)C(=O)CN1C(=O)NC2(CCc3ccccc3C2)C1=O (stereo not drawn) [SR-01000068179] | – | – | – | – | 87.03 ± 9.26% | – | – | – | – | – | 2.52 | 2.52 | 2.62 ± 3.03% | > 14700 nM | Efficiency Ligand [2]: 0.31; Hill Slope [2]: 0.84; Lipophilic Efficiency (logD) [2]: 3.64; Lipophilic Efficiency (logP) [2]: 3.64; EC50 ([2]; HEK-GPR139 cells): 1100 nM
CN(Cc1cccs1)C(=O)CN1C(=O)NC(C)(c2ccc3c(c2)OCO3)C1=O (stereo not drawn) [SR-01000068229] | 3.29 | 3.29 | −2.42 ± 7.08% | – | 112.57 ± 13.42% | 7.01 | 7.01 | 0.64 | 0.43 | 2.9 nM | – | – | – | – | EC50 [1, 6]: > 15400 nM
CC1C(CC(=O)NCC(=O)CCC2=Cc3ccccc3C2)=Nc2ccccc21 (stereo not drawn) [SR-01000068608] | – | – | – | – | 124.32 ± 15.50% | 4.52 | 4.51 | 0.93 | 0.34 | – | 2.46 | 2.46 | 24.17 ± 25.98% | > 14300 nM | –
Cc1cc(C(=O)NNC(=O)CNC(=O)Cc2cccc3ccccc23)c(C)o1 [SR-01000068718] | 3.34 | 3.34 | 20.24 ± 11.96% | > 14900 nM | 119.00 ± 0.36% | 6.50 | 6.50 | 0.58 | 0.40 | 10.1 nM | – | – | – | – | –
O=C(CCC(=O)c1ccco1)NNC(=O)CN1CCCc2ccccc21 [SR-01000068721] | 2.68 | 2.68 | 8.82 ± 10.34% | > 15200 nM | 109.68 ± 5.18% | 5.32 | 5.32 | 0.71 | 0.40 | 34.7 nM | – | – | – | – | –
Cn1c(CC(=O)NNC(=O)CSc2ccc3ccccc3c2)nc2ccccc21 [SR-01000068729] | 1.73 | 1.73 | −3.41 ± 1.08% | – | 126.00 ± 7.94% | 6.03 | 6.03 | – | 0.44 | > 0.779 nM | – | – | – | – | EC50 [1, 6]: > 15300 nM
O=C(COc1ccccc1F)NNC(=O)CSc1ccc2ccccc2c1 [SR-01000068761] | 1.82 | 1.81 | 4.98 ± 10.48% | > 14700 nM | 123.40 ± 6.48% | 5.00 | 4.99 | 0.55 | 0.42 | 9.7 nM | – | – | – | – | –
O=C(CCc1nc2ccccc2s1)NNC(=O)C1CCCCC1 [SR-01000068916] | – | – | – | – | 118.50 ± 16.12% | 4.23 | 4.23 | 0.84 | 0.43 | 98.9 nM | 2.04 | 2.04 | 19.72 ± 5.30% | > 15300 nM | –
COc1cc(C(=O)NNC(=O)CCc2c[nH]c3ccccc23)ccc1OC(C)C [SR-01000068919] | – | – | – | – | 93.45 ± 21.44% | – | – | – | – | – | 1.78 | 1.78 | 39.50 ± 8.66% | > 14200 nM | Efficiency Ligand [2]: 0.31; Hill Slope [2]: 0.88; Lipophilic Efficiency (logD) [2]: 3.27; Lipophilic Efficiency (logP) [2]: 3.27; EC50 ([2]; HEK-GPR139 cells): 460 nM
Cc1cc(C(=O)CCC(=O)NNC(=O)c2ccc(COc3ccccc3)cc2)c(C)o1 [SR-01000069259] | 0.40 | 0.40 | 7.00 ± 9.99% | > 14200 nM | 126.19 ± 25.88% | 3.74 | 3.74 | – | 0.37 | > 6.5 nM | – | – | – | – | –
O=C(CSc1ccc2ccccc2c1)NNC(=O)c1ccc(Br)s1 [SR-01000069345] | 0.77 | 0.77 | 15.34 ± 2.20% | – | 114.67 ± 3.82% | 4.37 | 4.37 | 1.18 | 0.49 | 3.7 nM | – | – | – | – | EC50 [1, 6]: > 14700 nM
Cc1ccccc1SCC(=O)NNC(=O)c1ccc(Br)s1 [SR-01000069352] | – | – | – | – | 97.44 ± 1.25% | 3.03 | 3.02 | 1.19 | 0.44 | 248 nM | 1.25 | 1.25 | 11.25 ± 2.29% | > 14600 nM | –
Cc1ccc(SCC(=O)NNC(=O)CCC(=O)c2cccs2)cc1 [SR-01000069391] | – | – | – | – | 99.00 ± 11.26% | 4.39 | 4.39 | 0.48 | 0.39 | 171 nM | 2.43 | 2.43 | 12.32 ± 6.09% | – | EC50 ([1]; HEK Agonist Activity section of Table 4 (parental HEK counterscreen)): > 15500 nM
